These results are taken from patent US9284315B2, “Three-ring PI3K and/or mTOR inhibitor” (XUANZHU PHARMA CO., LTD., priority 2011, dated 2016).

Data set [1] has as its target T1, PI3Kα (Homo sapiens (Human), UniProt P42336). Nature of the data set: PI3K inhibitory activity, Method 1 activity test. The class given is biochemical. The following applies: PIP2 50 μM, ATP 25 μM. As for the experimental part:
Determination of the inhibitory activity of PI3K
(§1) 1. Preparation of test reagents
(1) 1× kinase buffer (50 mM HEPES, pH 7.5, 3 mM MgCl2, 1 mM EGTA, 100 mM NaCl, 0.03% CHAPS, 2 mM DTT);
(2) 4× kinase solution (added PI3K a kinase to 1× kinase buffer to provide 4× kinase solution with a final concentration of 1.65 nM);
(3) 2× substrate solution (added the substrates of PIP2 and ATP into 1× kinase buffer to provide 2× substrate solution with PIP2 final concentration of 50 μM and ATP final concentration of 25 μM);
(4) 4× test substance solutions (100× test substance solutions with different concentration gradients were prepared using 100% DMSO, and diluted 25-fold with 1× kinase buffer to give 4× test substance solutions with different concentration gradients);
(5) Invitrogen's activity test kit with the test solution was kept stand to room temperature.
(§2) 2. 2.5 μL of 4× test solution was added to a 384-well plate in parallel;
(§3) 3. added […] of 4× kinase solution and incubated for 10 min;
4. then added 5 μL of 2× solutions of PIP2 and ATP substrates and incubated for 1 h at room temperature;
5. finally, added 10 μL of test solution to quench the reaction, and read after 15 min;
(§4) 6. IC50 value was obtained via curve fitting. Inhibition rate (%)=(sample value−minimum)/(maximum−minimum)×100
Maximum refers to the readings of control wells without enzyme, minimum refers to the readings of DMSO control wells.
(§5) IC50 value was obtained via curve fitting using a soft of Graphpad 5.0.

Data set [2] addresses T2, mTOR (Homo sapiens (Human), UniProt P42345). Nature of the data set: mTOR inhibitory activity, Method 1 activity test. The class given is biochemical. The following applies: 4EBP1 50 nM, ATP 10.8 μM. The protocol:
Determination of the Inhibitory Activity of mTOR
as §1
(1) 1× kinase buffer (50 mM HEPES, pH 7.5, 10 mM MgCl2, 1 mM EGTA, 3 mM MnCl, 0.01% Tween-20, 2 mM DTT);
(2) 4× kinase solution (added mTOR kinase to 1× kinase buffer to provide 4× kinase solution with a final concentration of 2.5 nM);
(3) 2× substrate solution (added the substrates of 4EBP1 and ATP into 1× kinase buffer to provide 2× substrate solution with 4EBP1 final concentration of 50 nM and ATP final concentration of 10.8 μM);
(4) 4× test substance solutions (100× test substance solutions with different concentration gradients were prepared using 100% DMSO, and diluted 25-fold with 1× kinase buffer to give 4× test substance solutions with different concentration gradients)
(5) preparation of test solution (test solution containing EDTA and 4EBP1 phosphorylated antibody was prepared using activity test kit with assay buffer, the final concentration of EDTA was 8 mM, and the final concentration of 4EBP1 phosphorylated antibody was 2 nM)
as §2, §3
4. then added 5 μL of 2× solutions of 4EBP1 and ATP substrates and incubated for 1 h at room temperature;
5. finally, added 10 μL of test solution to quench the reaction, and read after 60 min;
as §4
Minimum refers to the readings of control wells without enzyme, maximum refers to the readings of DMSO control wells.
as §5

The subject of data set [3] is U87MG. The data set can be described thus: Cell viability assay by XTT method, U87MG. Type of data set: cell-based. The following applies: Homo sapiens, U-87 MG. As for the experimental part: (§6) 1. Preparation of Reagents and Compounds
(§7) 2) Preparation of XTT test working solution:
(§8) 100 mg of tetrazolium salt (XTT) powder was weighed and dissolved in dark in 300 mL of phenol red-free serum-free RPMI1640 medium heated to 50° C., filtered and subpackaged, used immediately or within a week. All process should be conducted in dark.
(§9) 3) Preparation of test compounds
(§10) preparation of stock solutions of the test substances: the powder of test substances was dissolved in DMSO in a concentration of 10 mM.
(§11) preparation of gradiently diluted stock solutions of test substances: First, 10 mM of the stock solutions of test substances were diluted serially in 4-fold with DMSO to 10 concentrations. 2 μL of DMSO-diluted solution for each compound was taken and added to 998 μL of culture medium containing 10% fetal bovine serum (FBS). The highest concentration of the test substances was 20 μM, the concentration of DMSO was 0.2%, and there were 10 concentration gradients in total.
(§12) 1) Preparation of cell suspension
(§13) The culture medium was discarded from the flask, and the cells were washed twice with PBS. Added trypsinase to digest the cell and then collected by centrifugation, resuspended with a medium containing 10% FBS, counted and adjusted to an appropriate concentration (cell viability must be greater than 90%). The cell concentration was […].
(§14) 2) The cell suspension was added to 96-well plates, each well 100 μL.
(§15) 3) Incubated in a cell incubator overnight at 37° C., 5% CO2.
(§16) Added compound diluted 2-fold to the cell culture plates, three repeated in total, 100 μL well.
(§17) 5. Cell Viability Assay by XTT Method
(§18) Discarded the culture medium, added XTT test working liquid in an amount of 150 μL well, and kept in a cell incubator at 37° C., 5% CO2 for 2 h, then placed into a microplate reader and read the absorbance at 450 nm.
(§19) 1) The percentage of inhibition was calculated using the following formula: Inhibition rate (%)=(reading(solvent)−reading(compound))/reading(solvent)−reading(positive control))×100
(§20) 2) The data was entered into GraphPad Prism 5.0 and plotted to obtain the curve and IC50.
Background: Tetrazolium assays rely on reduction of a dye to a coloured formazan, in cell work by metabolically active cells.

For data set [4], the system named is SKOV-3. The data set can be described thus: Cell viability assay by XTT method, SKOV-3. Type of data set: cell-based. The following applies: Homo sapiens, SK-OV-3. As for the experimental part:
as §6, §7, §8, §9, §10, §11, §12, §13, §14, §15, §16, §17, §18, §19, §20

Data set [5] concerns SD rats. The data set can be described thus: Repeated-dose toxicity test in rats. Type of data set: in vivo. The following applies: 14 days; for hair loss (animals affected) / lassitude (animals affected) / loose stools (animals affected): gavage once daily, 20 rats. As for the experimental part: The test substances were suspended in 0.5% methylcellulose solution to prepare suspensions with a concentration of 0.5 mg/mL, 1.5 mg/mL and 3 mg/mL.
Animals: SD rats, 6-8 weeks old, SPF grade, purchased from Beijing Vital River Laboratory Animal Technology Co., Ltd., licensed […] No: SCXK (Beijing) 2006-0009.
The test substances were administrated as a suspension via gavage, and administrating volume was 10 mL/kg. 0.5% methyl cellulose solution was used in the solvent group, and the administrating volume was 10 mL/kg, administered once daily for consecutive 14 days. Animals were observed daily appearance and general behavior changes.

Data set [6] can be described thus: In vivo pharmacokinetics in rats, gavage (PO). The following applies: male, SD, rat, plasma, 4 mg/kg.
Data set [7] in a line: In vivo pharmacokinetics in rats, intravenous bolus injection (IV). The following applies: 2 mg/kg.
In data set [8] the target is T1, PI3Kα. The data set can be described thus: biochemical. Type of data set: binding.
For data set [9], the target named is T2, mTOR. Nature of the data set: biochemical. Type of data set: binding.
The conditions of data set [10]: male, SD, rat, in vivo, iv, 2 mg/kg.
Data set [11] is described as follows: in vivo. The following applies: male, SD, rat, iv, 2 mg/kg.
Data set [12] can be described thus: in vivo. The following applies: male, SD, rat, po, 4 mg/kg.

“And” between values parts separate entries of the source, which are not always exact repeats. Equal values may be shown once. Read-outs that look alike come from different tables or passages of the source.

T1 sequence (P42336 whole entry): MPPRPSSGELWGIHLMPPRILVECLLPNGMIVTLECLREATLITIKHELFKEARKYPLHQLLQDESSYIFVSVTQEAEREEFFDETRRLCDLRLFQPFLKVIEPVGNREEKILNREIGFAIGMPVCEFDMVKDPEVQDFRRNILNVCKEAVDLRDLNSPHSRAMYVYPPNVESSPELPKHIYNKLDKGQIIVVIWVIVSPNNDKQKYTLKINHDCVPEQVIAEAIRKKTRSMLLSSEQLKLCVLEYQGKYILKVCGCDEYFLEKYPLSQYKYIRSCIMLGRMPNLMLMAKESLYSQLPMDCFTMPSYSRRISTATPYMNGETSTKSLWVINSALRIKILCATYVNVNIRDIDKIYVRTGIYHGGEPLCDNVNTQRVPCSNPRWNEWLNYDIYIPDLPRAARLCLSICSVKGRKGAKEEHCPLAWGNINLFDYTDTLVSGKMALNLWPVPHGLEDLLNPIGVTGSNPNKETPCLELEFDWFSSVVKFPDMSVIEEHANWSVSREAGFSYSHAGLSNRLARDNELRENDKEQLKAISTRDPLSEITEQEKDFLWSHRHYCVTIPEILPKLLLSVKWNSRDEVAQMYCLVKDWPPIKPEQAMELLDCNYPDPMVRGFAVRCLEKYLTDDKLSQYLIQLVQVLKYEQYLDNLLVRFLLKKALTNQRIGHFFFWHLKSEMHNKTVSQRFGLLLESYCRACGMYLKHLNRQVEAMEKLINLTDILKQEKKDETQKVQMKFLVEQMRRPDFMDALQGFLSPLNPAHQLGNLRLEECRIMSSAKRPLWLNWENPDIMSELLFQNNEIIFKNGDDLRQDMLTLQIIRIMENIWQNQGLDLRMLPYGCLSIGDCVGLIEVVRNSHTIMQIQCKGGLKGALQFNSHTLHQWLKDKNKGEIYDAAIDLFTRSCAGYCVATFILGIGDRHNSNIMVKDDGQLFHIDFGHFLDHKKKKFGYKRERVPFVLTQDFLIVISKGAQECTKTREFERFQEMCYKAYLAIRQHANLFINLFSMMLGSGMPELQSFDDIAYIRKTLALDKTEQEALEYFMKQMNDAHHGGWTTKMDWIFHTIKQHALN
T1 sequence (P27986 whole entry partner): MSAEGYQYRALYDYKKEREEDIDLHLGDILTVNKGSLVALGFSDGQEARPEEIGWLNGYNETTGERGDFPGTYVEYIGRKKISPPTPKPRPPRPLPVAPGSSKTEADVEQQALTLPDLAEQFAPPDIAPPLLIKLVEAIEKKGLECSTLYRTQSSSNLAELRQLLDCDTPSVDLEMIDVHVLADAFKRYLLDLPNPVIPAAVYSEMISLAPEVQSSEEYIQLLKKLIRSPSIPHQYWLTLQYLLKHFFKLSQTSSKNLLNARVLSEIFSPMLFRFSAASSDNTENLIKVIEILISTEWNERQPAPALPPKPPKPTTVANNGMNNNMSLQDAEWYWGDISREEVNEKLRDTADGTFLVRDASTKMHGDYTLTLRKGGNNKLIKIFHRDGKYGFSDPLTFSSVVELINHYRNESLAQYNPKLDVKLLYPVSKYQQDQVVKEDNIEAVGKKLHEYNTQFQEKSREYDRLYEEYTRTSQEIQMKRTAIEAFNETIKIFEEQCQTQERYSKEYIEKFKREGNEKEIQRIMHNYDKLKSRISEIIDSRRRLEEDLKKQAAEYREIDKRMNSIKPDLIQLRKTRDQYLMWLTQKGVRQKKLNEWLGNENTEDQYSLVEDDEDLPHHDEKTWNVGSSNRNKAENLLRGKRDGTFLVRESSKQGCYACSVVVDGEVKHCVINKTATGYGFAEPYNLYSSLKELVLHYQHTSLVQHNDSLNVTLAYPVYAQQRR

As a reminder, the IC50 is the midpoint of a concentration-inhibition curve. What is called AUC is the area under the concentration-time curve, a measure of exposure. Low values mean low exposure, high ones high exposure. For orientation: Cmax means the highest concentration seen after dosing. What is called bioavailability is the share of a dose that reaches the circulation, judged against a reference dose that is usually intravenous. What is called half-life is the time in which the quantity being followed falls by half. A high value points to slow loss. For `CN1Cc2cnc3ccc(-c4ccc(N)nc4)nc3c2N(c2cccc(C(F)(F)F)c2)C1=O` [Compound 3], the half-maximal inhibitory concentration (IC50) in [1] was determined as 0.0104 µM. Further, the half-inhibitory concentration (IC50) in [2] worked out at 0.00886 µM. The compound also registered an IC50 in [3] of 0.0847 µM. Further, half-maximal inhibition in data set [4] (IC50) required 0.155 µM. In data set [5] (high dose 30 mg/kg/day), the “hair loss (animals affected)” value is “one and 1/20”; the “lassitude (animals affected)” value was “four and 4/20”; the “loose stools (animals affected)” value is “one and 1/20”. In addition, in data set [5] (low dose 5 mg/kg/day), the abnormal vital signs entry was “no animals with abnormal vital signs”, the “hair loss (animals affected)” value is reported as 0/20, the “lassitude (animals affected)” value was 0/20 and the “loose stools (animals affected)” value is recorded as 0/20. In [5] (middle dose 15 mg/kg/day), the “hair loss (animals affected)” value is given as 0/20; the “lassitude (animals affected)” value is 0/20; the “loose stools (animals affected)” value is “one and 1/20”. For the same compound, in data set [6], the AUC turned out to be 1.38 µg·h/mL, the highest level (Cmax) was 0.198 µg/mL, the bioavailability was 40.4% and the half-life is 5.33 h. Besides, in data set [7] (male, SD, rat, plasma, iv), the AUC came out at 1.7 µg·h/mL and the half-life is 6.48 h. In data set [7] (rats, IV), this compound displayed a Cl_obs of 1.14 L/h/kg and a Vss_obs of 5.6 L/kg.
Broadly, the Tmax is the time at which the peak concentration occurs. Turning to `COc1ccc(-c2ccc3ncc4c(c3n2)N(C2CCN(C(=O)[C@@H](C)O)CC2)C(=O)N(C)C4)cn1` [Compound 86, (R)-1-(1-(2-hydroxypropanoyl)piperidin-4-yl)-9-(6-methoxypyridin-3-yl)-3-methyl-3,4-dihydropyrimido[5,4-c][1,5]naphthyridin-2(1H)-one], half-maximal inhibition in data set [8] (IC50) required 0.0097 µM. The compound also showed an IC50 in data set [9] of 0.257 µM. Further, in [10], the Cl_obs was 13.6 L/h/kg and the Vss_obs worked out at 3.58 L/kg. In [11], this compound showed an AUC of 0.154 µg·h/mL and a half-life of 0.2 h. Also, in data set [12], the AUC came to 0.177 µg·h/mL, the highest concentration (Cmax) is 0.251 µg/mL, the time to peak (Tmax) came out at 0.33 h and the bioavailability was found to be 58%. In [12], this compound gave a half-life of 1.04 h.
Take `COc1ccc(-c2ccc3ncc4c(c3n2)N(C2CCNCC2)C(=O)N(C)C4)cn1` [Compound 114]: the half-inhibitory concentration (IC50) is 0.115 µM in data set [8] and 0.732 µM in data set [9].
